Test results reported in ChEMBL document CHEMBL1147101, “Development and persistence of antimicrobial resistance in Pseudomonas aeruginosa: a longitudinal observation in mechanically ventilated patients” (Antimicrob Agents Chemother, 2007).
Calls of active or inactive are those of the source. No cut-off for these calls is given here.

What was measured:
Type in all cases: functional, organism-based
Conditions in all cases: Trachea
Pseudomonas aeruginosa [1] = test: Antimicrobial activity against Pseudomonas aeruginosa 65.38-3 tracheal isolates from mechanically ventilated tuberculosis patient
Pseudomonas aeruginosa [2] = test: Antimicrobial activity against Pseudomonas aeruginosa 1A9 tracheal isolates from mechanically ventilated tuberculosis patient
Pseudomonas aeruginosa [3] = test: Antimicrobial activity against Pseudomonas aeruginosa 1B9 tracheal isolates from mechanically ventilated tuberculosis patient
Pseudomonas aeruginosa [4] = test: Antimicrobial activity against Pseudomonas aeruginosa 15G2 tracheal isolates from mechanically ventilated chronic respiratory insufficiency patient
Pseudomonas aeruginosa [5] = test: Antimicrobial activity against Pseudomonas aeruginosa 2C1 tracheal isolates from mechanically ventilated tuberculosis patient
Pseudomonas aeruginosa [6] = test: Antimicrobial activity against Pseudomonas aeruginosa 2A2 tracheal isolates from mechanically ventilated tuberculosis patient
Pseudomonas aeruginosa [7] = test: Antimicrobial activity against Pseudomonas aeruginosa 2C2 tracheal isolates from mechanically ventilated tuberculosis patient
Pseudomonas aeruginosa [8] = test: Antimicrobial activity against Pseudomonas aeruginosa 2A3 tracheal isolates from mechanically ventilated tuberculosis patient
Pseudomonas aeruginosa [9] = test: Antimicrobial activity against Pseudomonas aeruginosa 2A5 tracheal isolates from mechanically ventilated tuberculosis patient
Pseudomonas aeruginosa [10] = test: Antimicrobial activity against Pseudomonas aeruginosa 2A6 tracheal isolates from mechanically ventilated tuberculosis patient
Pseudomonas aeruginosa [11] = test: Antimicrobial activity against Pseudomonas aeruginosa 2F6 tracheal isolates from mechanically ventilated tuberculosis patient
Pseudomonas aeruginosa [12] = test: Antimicrobial activity against Pseudomonas aeruginosa 2A7 tracheal isolates from mechanically ventilated tuberculosis patient
Pseudomonas aeruginosa [13] = test: Antimicrobial activity against Pseudomonas aeruginosa 2A9 tracheal isolates from mechanically ventilated tuberculosis patient
Pseudomonas aeruginosa [14] = test: Antimicrobial activity against Pseudomonas aeruginosa 3B1 tracheal isolates from mechanically ventilated tuberculosis patient
Pseudomonas aeruginosa [15] = test: Antimicrobial activity against Pseudomonas aeruginosa 65.68-1 tracheal isolates from mechanically ventilated tuberculosis patient
Pseudomonas aeruginosa [16] = test: Antimicrobial activity against Pseudomonas aeruginosa 65.68-2 tracheal isolates from mechanically ventilated tuberculosis patient
Pseudomonas aeruginosa [17] = test: Antimicrobial activity against Pseudomonas aeruginosa 65.68-3 tracheal isolates from mechanically ventilated tuberculosis patient
Pseudomonas aeruginosa [18] = test: Antimicrobial activity against Pseudomonas aeruginosa 5H6 tracheal isolates from mechanically ventilated chronic respiratory insufficiency patient
Pseudomonas aeruginosa [19] = test: Antimicrobial activity against Pseudomonas aeruginosa 65.68-4 tracheal isolates from mechanically ventilated tuberculosis patient
Pseudomonas aeruginosa [20] = test: Antimicrobial activity against Pseudomonas aeruginosa 2A5 tracheal isolates from mechanically ventilated chronic respiratory insufficiency patient
Pseudomonas aeruginosa [21] = test: Antimicrobial activity against Pseudomonas aeruginosa 12A7 tracheal isolates from mechanically ventilated chronic respiratory insufficiency patient
Pseudomonas aeruginosa [22] = test: Antimicrobial activity against Pseudomonas aeruginosa 12B2 tracheal isolates from mechanically ventilated chronic respiratory insufficiency patient
Pseudomonas aeruginosa [23] = test: Antimicrobial activity against Pseudomonas aeruginosa 19B3 tracheal isolates from mechanically ventilated chronic respiratory insufficiency patient
Pseudomonas aeruginosa [24] = test: Antimicrobial activity against Pseudomonas aeruginosa 19B6 tracheal isolates from mechanically ventilated chronic respiratory insufficiency patient
Pseudomonas aeruginosa [25] = test: Antimicrobial activity against Pseudomonas aeruginosa 3D1 tracheal isolates from mechanically ventilated chronic respiratory insufficiency patient
Pseudomonas aeruginosa [26] = test: Antimicrobial activity against Pseudomonas aeruginosa 3D10 tracheal isolates from mechanically ventilated chronic respiratory insufficiency patient
Pseudomonas aeruginosa [27] = test: Antimicrobial activity against Pseudomonas aeruginosa 5F2 tracheal isolates from mechanically ventilated chronic respiratory insufficiency patient
Pseudomonas aeruginosa [28] = test: Antimicrobial activity against Pseudomonas aeruginosa 5F8 tracheal isolates from mechanically ventilated chronic respiratory insufficiency patient
Pseudomonas aeruginosa [29] = test: Antimicrobial activity against Pseudomonas aeruginosa 5G3 tracheal isolates from mechanically ventilated chronic respiratory insufficiency patient
Pseudomonas aeruginosa [30] = test: Antimicrobial activity against Pseudomonas aeruginosa 8A2 tracheal isolates from mechanically ventilated chronic respiratory insufficiency patient
Pseudomonas aeruginosa [31] = test: Antimicrobial activity against Pseudomonas aeruginosa 8A12 tracheal isolates from mechanically ventilated chronic respiratory insufficiency patient
Pseudomonas aeruginosa [32] = test: Antimicrobial activity against Pseudomonas aeruginosa 8C4 tracheal isolates from mechanically ventilated chronic respiratory insufficiency patient
Pseudomonas aeruginosa [33] = test: Antimicrobial activity against Pseudomonas aeruginosa 8B11 tracheal isolates from mechanically ventilated chronic respiratory insufficiency patient
Pseudomonas aeruginosa [34] = test: Antimicrobial activity against Pseudomonas aeruginosa 9A1 tracheal isolates from mechanically ventilated chronic respiratory insufficiency patient
Pseudomonas aeruginosa [35] = test: Antimicrobial activity against Pseudomonas aeruginosa 9A3 tracheal isolates from mechanically ventilated chronic respiratory insufficiency patient
Pseudomonas aeruginosa [36] = test: Antimicrobial activity against Pseudomonas aeruginosa 9A7 tracheal isolates from mechanically ventilated chronic respiratory insufficiency patient
Pseudomonas aeruginosa [37] = test: Antimicrobial activity against Pseudomonas aeruginosa 9A10 tracheal isolates from mechanically ventilated chronic respiratory insufficiency patient
Pseudomonas aeruginosa [38] = test: Antimicrobial activity against Pseudomonas aeruginosa 9B2 tracheal isolates from mechanically ventilated chronic respiratory insufficiency patient
Pseudomonas aeruginosa [39] = test: Antimicrobial activity against Pseudomonas aeruginosa 10A6 tracheal isolates from mechanically ventilated chronic respiratory insufficiency patient
Pseudomonas aeruginosa [40] = test: Antimicrobial activity against Pseudomonas aeruginosa 10A9 tracheal isolates from mechanically ventilated chronic respiratory insufficiency patient
Pseudomonas aeruginosa [41] = test: Antimicrobial activity against Pseudomonas aeruginosa 10B1 tracheal isolates from mechanically ventilated chronic respiratory insufficiency patient
Pseudomonas aeruginosa [42] = test: Antimicrobial activity against Pseudomonas aeruginosa 10B3 tracheal isolates from mechanically ventilated chronic respiratory insufficiency patient
Pseudomonas aeruginosa [43] = test: Antimicrobial activity against Pseudomonas aeruginosa 12A3 tracheal isolates from mechanically ventilated chronic respiratory insufficiency patient
Pseudomonas aeruginosa [44] = test: Antimicrobial activity against Pseudomonas aeruginosa 24G1 tracheal isolates from mechanically ventilated chronic respiratory insufficiency patient
Pseudomonas aeruginosa [45] = test: Antimicrobial activity against Pseudomonas aeruginosa 29F6 tracheal isolates from mechanically ventilated chronic respiratory insufficiency patient
Pseudomonas aeruginosa [46] = test: Antimicrobial activity against Pseudomonas aeruginosa 29G6 tracheal isolates from mechanically ventilated chronic respiratory insufficiency patient
Pseudomonas aeruginosa [47] = test: Antimicrobial activity against Pseudomonas aeruginosa 29G8 tracheal isolates from mechanically ventilated chronic respiratory insufficiency patient
Pseudomonas aeruginosa [48] = test: Antimicrobial activity against Pseudomonas aeruginosa 19E2 tracheal isolates from mechanically ventilated chronic respiratory insufficiency patient
Pseudomonas aeruginosa [49] = test: Antimicrobial activity against Pseudomonas aeruginosa 22D2 tracheal isolates from mechanically ventilated chronic respiratory insufficiency patient
Pseudomonas aeruginosa [50] = test: Antimicrobial activity against Pseudomonas aeruginosa 22D6 tracheal isolates from mechanically ventilated chronic respiratory insufficiency patient
Pseudomonas aeruginosa [51] = test: Antimicrobial activity against Pseudomonas aeruginosa 22D9 tracheal isolates from mechanically ventilated chronic respiratory insufficiency patient
Pseudomonas aeruginosa [52] = test: Antimicrobial activity against Pseudomonas aeruginosa 22E1 tracheal isolates from mechanically ventilated chronic respiratory insufficiency patient
Pseudomonas aeruginosa [53] = test: Antimicrobial activity against Pseudomonas aeruginosa 22E3 tracheal isolates from mechanically ventilated chronic respiratory insufficiency patient
Pseudomonas aeruginosa [54] = test: Antimicrobial activity against Pseudomonas aeruginosa 22C5 tracheal isolates from mechanically ventilated chronic respiratory insufficiency patient
Pseudomonas aeruginosa [55] = test: Antimicrobial activity against Pseudomonas aeruginosa 24E5 tracheal isolates from mechanically ventilated chronic respiratory insufficiency patient
Pseudomonas aeruginosa [56] = test: Antimicrobial activity against Pseudomonas aeruginosa 65.33-2 tracheal isolates from mechanically ventilated tuberculosis patient
Pseudomonas aeruginosa [57] = test: Antimicrobial activity against Pseudomonas aeruginosa 65.33-4 tracheal isolates from mechanically ventilated tuberculosis patient
Pseudomonas aeruginosa [58] = test: Antimicrobial activity against Pseudomonas aeruginosa 65.36-2 tracheal isolates from mechanically ventilated tuberculosis patient
Pseudomonas aeruginosa [59] = test: Antimicrobial activity against Pseudomonas aeruginosa 65.38-1 tracheal isolates from mechanically ventilated tuberculosis patient

CCn1cc(C(=O)O)c(=O)c2cc(F)c(N3CCNCC3)cc21
Activity (Pseudomonas aeruginosa [1]): Active
Activity (Pseudomonas aeruginosa [2]): Active
Activity (Pseudomonas aeruginosa [3]): Active
Activity (Pseudomonas aeruginosa [4]): inactive
Activity (Pseudomonas aeruginosa [5]): Active
Activity (Pseudomonas aeruginosa [6]): Active
Activity (Pseudomonas aeruginosa [7]): Active
Activity (Pseudomonas aeruginosa [8]): Active
Activity (Pseudomonas aeruginosa [9]): Active
Activity (Pseudomonas aeruginosa [10]): Active
Activity (Pseudomonas aeruginosa [11]): Active
Activity (Pseudomonas aeruginosa [12]): Active
Activity (Pseudomonas aeruginosa [13]): Active
Activity (Pseudomonas aeruginosa [14]): Active
Activity (Pseudomonas aeruginosa [15]): Active
Activity (Pseudomonas aeruginosa [16]): Active
Activity (Pseudomonas aeruginosa [17]): Active
Activity (Pseudomonas aeruginosa [18]): Active
Activity (Pseudomonas aeruginosa [19]): Active
Activity (Pseudomonas aeruginosa [20]): Active
Activity (Pseudomonas aeruginosa [21]): Active
Activity (Pseudomonas aeruginosa [22]): Active
Activity (Pseudomonas aeruginosa [23]): Active
Activity (Pseudomonas aeruginosa [24]): Active
Activity (Pseudomonas aeruginosa [25]): Active
Activity (Pseudomonas aeruginosa [26]): Active
Activity (Pseudomonas aeruginosa [27]): Active
Activity (Pseudomonas aeruginosa [28]): Active
Activity (Pseudomonas aeruginosa [29]): Active
Activity (Pseudomonas aeruginosa [30]): Active
Activity (Pseudomonas aeruginosa [31]): Active
Activity (Pseudomonas aeruginosa [32]): Active
Activity (Pseudomonas aeruginosa [33]): Active
Activity (Pseudomonas aeruginosa [34]): Active
Activity (Pseudomonas aeruginosa [35]): Active
Activity (Pseudomonas aeruginosa [36]): Active
Activity (Pseudomonas aeruginosa [37]): Active
Activity (Pseudomonas aeruginosa [38]): Active
Activity (Pseudomonas aeruginosa [39]): Active
Activity (Pseudomonas aeruginosa [40]): Active
Activity (Pseudomonas aeruginosa [41]): Active
Activity (Pseudomonas aeruginosa [42]): Active
Activity (Pseudomonas aeruginosa [43]): Active
Activity (Pseudomonas aeruginosa [44]): Active
Activity (Pseudomonas aeruginosa [45]): Active
Activity (Pseudomonas aeruginosa [46]): Active
Activity (Pseudomonas aeruginosa [47]): Active
Activity (Pseudomonas aeruginosa [48]): Active
Activity (Pseudomonas aeruginosa [49]): Active
Activity (Pseudomonas aeruginosa [50]): Active
Activity (Pseudomonas aeruginosa [51]): Active
Activity (Pseudomonas aeruginosa [52]): Active
Activity (Pseudomonas aeruginosa [53]): Active
Activity (Pseudomonas aeruginosa [54]): Active
Activity (Pseudomonas aeruginosa [55]): Active
Activity (Pseudomonas aeruginosa [56]): Active
Activity (Pseudomonas aeruginosa [57]): Active
Activity (Pseudomonas aeruginosa [58]): Active
Activity (Pseudomonas aeruginosa [59]): Active
